Target: human full-length BTK Kinase (Homo sapiens (Human), UniProt Q06187)
Experiment: Human BTK LanthaScreen Assay (TR-FRET)
Assay type: biochemical
Conditions: 50 μM ATP, FAM-Srctide peptide substrate, read-out: BTK Inhibition IC50
Source text: Human BTK LanthaScreen Assay

Chain of human full-length BTK Kinase (Q06187 whole entry): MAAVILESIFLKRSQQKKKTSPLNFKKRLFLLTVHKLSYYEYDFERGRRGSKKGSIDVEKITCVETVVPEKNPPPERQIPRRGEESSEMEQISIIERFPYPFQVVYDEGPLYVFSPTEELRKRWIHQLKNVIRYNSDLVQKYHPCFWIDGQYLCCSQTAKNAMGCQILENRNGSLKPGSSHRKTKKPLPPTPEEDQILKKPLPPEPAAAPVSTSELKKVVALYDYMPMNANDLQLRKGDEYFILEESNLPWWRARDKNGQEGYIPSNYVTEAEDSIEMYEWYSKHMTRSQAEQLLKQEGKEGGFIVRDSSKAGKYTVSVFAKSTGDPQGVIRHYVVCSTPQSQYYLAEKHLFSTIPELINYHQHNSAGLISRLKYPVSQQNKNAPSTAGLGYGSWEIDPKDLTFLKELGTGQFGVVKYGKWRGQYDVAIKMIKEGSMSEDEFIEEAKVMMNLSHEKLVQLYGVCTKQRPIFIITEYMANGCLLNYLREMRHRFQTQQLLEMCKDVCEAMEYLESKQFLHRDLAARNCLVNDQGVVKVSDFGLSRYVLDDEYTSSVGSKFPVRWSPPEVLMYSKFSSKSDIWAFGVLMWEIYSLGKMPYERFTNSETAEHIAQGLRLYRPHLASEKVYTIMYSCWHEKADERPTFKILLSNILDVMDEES

| SMILES | IC50 [nM] |
| --- | --- |
| N#CN1CCCC(n2nc(-c3cccc(Oc4ccc(OC(F)(F)F)cc4)c3)c(C(N)=O)c2N)C1 (centres unmarked) [Example 95, 5-Amino-1-(1-cyanopiperidin-3-yl)-3-{3-[4-(trifluoromethoxy)phenoxy]phenyl}-1H-pyrazole-4-carboxamide] | 79.2 |
| Cc1cc(Oc2ccc(-c3nn(C4CCCN(C#N)C4)c(N)c3C(N)=O)cc2)ccc1F (centres unmarked) [Example 31, 5-amino-1-(1-cyanopiperidin-3-yl)-3-[4-(4-fluoro-3-methylphenoxy)phenyl]-1H-pyrazole-4-carboxamide] | 2.8 |
| Cc1cc(Oc2cccc(-c3nn(C4CCCN(C#N)C4)c(N)c3C(N)=O)c2)ccc1Cl (centres unmarked) [Example 99, 5-amino-3-[3-(4-chloro-3-methylphenoxy)-phenyl]-1-(1-cyanopiperidin-3-yl)-1H-pyrazole-4-carboxamide] | 15.6 |
| N#CN1CCCC(n2nc(-c3ccc(Oc4ccc(F)c(F)c4F)cc3)c(C(N)=O)c2N)C1 (centres unmarked) [Example 61, 5-amino-1-(1-cyanopiperidin-3-yl)-3-[4-(2,3,4-trifluorophenoxy)phenyl]-1H-pyrazole-4-carboxamide] | 5.1 |
| N#C/C=C/C(=O)N1CCC[C@@H](n2nc(-c3ccc(Oc4cccc(C(F)(F)F)n4)cc3)c(C(N)=O)c2N)C1 [Example 166, 5-amino-1-{(3R)-1-[(2E)-3-cyanoprop-2-enoyl]piperidin-3-yl}-3-(4-{[6-(trifluoromethyl)pyridin-2-yl]oxy}phenyl)-1H-pyrazole-4-carboxamide] | 2.2 |
| Cc1cc(F)ccc1Oc1ccc(-c2nn(C3CCCN(C#N)C3)c(N)c2C(N)=O)cc1 (single isomer, unassigned) [Example 33] | 24.1 |
| N#CN1CCCC(n2nc(-c3ccc(Oc4cc(Cl)ccc4F)cc3)c(C(N)=O)c2N)C1 (centres unmarked) [Example 49, 5-amino-3-[4-(5-chloro-2-fluorophenoxy)phenyl]-1-(1-cyanopiperidin-3-yl)-1H-pyrazole-4-carboxamide] | 2.2 |
| N#CN1CCCC(n2nc(-c3ccc(Oc4ccc(F)c(Cl)c4)cc3)c(C(N)=O)c2N)C1 (centres unmarked) [Example 58, 5-amino-3-[4-(3-chloro-4-fluoro-phenoxy)phenyl]-1-(1-cyanopiperidin-3-yl)-1H-pyrazole-4-carboxamide] | 1.8 |
| N#CN1CCC[C@H](n2nc(-c3ccc(Cc4ccccc4Cl)cc3)c(C(N)=O)c2N)C1 [Example 73, (S)-5-amino-3-(4-(2-chlorobenzyl)phenyl)-1-(1-cyanopiperidin-3-yl)-1H-pyrazole-4-carboxamide] | 6.1 |
| N#CN1CCOCC(n2nc(-c3ccc(Oc4ccccc4)cc3)c(C(N)=O)c2N)C1 (centres unmarked) [Example 10, 5-amino-1-(4-cyano-1,4-oxazepan-6-yl)-3-(4-phenoxyphenyl)-1H-pyrazole-4-carboxamide] | 13.5 |
| N#CCN1CCCC(n2nc(-c3ccc(Oc4ccccc4)cc3)c(C(N)=O)c2N)C1 (centres unmarked) [Example 4, 5-amino-1-[1-(cyanomethyl)piperidin-3-yl]-3-(4-phenoxyphenyl)-1H-pyrazole-4-carboxamide] | 35 |
| N#CN1CCCC(n2nc(-c3ccc(Oc4ccc(F)c(OC(F)(F)F)c4)cc3)c(C(N)=O)c2N)C1 (centres unmarked) [Example 46, 5-amino-1-(1-cyanopiperidin-3-yl)-3-{4-[4-fluoro-3-(trifluoromethoxy)-phenoxy]phenyl}-1H-pyrazole-4-carboxamide] | 6.4 |
| Cc1cccc(Cc2ccc(-c3nn(C4CCCN(C#N)C4)c(N)c3C(N)=O)cc2)c1 (centres unmarked) [Example 68, 5-amino-1-(1-cyanopiperidin-3-yl)-3-[4-(3-methylbenzyl)phenyl]-1H-pyrazole-4-carboxamide] | 1.9 |
| N#CN1CCCC(n2nc(-c3ccc(Cc4ccc(F)c(F)c4)cc3)c(C(N)=O)c2N)C1 (centres unmarked) [Example 83, 5-amino-1-(1-cyanopiperidin-3-yl)-3-[4-(3,4-difluorobenzyl)phenyl]-1H-pyrazole-4-carboxamide] | 15.3 |
| COC/C=C/C(=O)N1CCC[C@@H](n2nc(-c3ccc(Oc4ccc(F)cc4F)cc3)c(C(N)=O)c2N)C1 [Example 138, 5-amino-3-[4-(2,4-difluorophenoxy)phenyl]-1-{(3R)-1-[(2E)-4-methoxybut-2-enoyl]piperidin-3-yl}-1H-pyrazole-4-carboxamide] | 21.8 |
| N#CN1CCCC(n2nc(-c3ccc(Oc4cc(Cl)cc(Cl)c4)cc3)c(C(N)=O)c2N)C1 (centres unmarked) [Example 60, 5-amino-1-(1-cyanopiperidin-3-yl)-3-[4-(3,5-dichlorophenoxy)phenyl]-1H-pyrazole-4-carboxamide] | 4.8 |
| N#CN1CCCC(n2nc(-c3ccc(Oc4ccccc4OC(F)(F)F)cc3)c(C(N)=O)c2N)C1 (centres unmarked) [Example 62, 5-amino-1-(1-cyanopiperidin-3-yl)-3-{4-[2-(trifluoromethoxy)phenoxy]phenyl}-1H-pyrazole-4-carboxamide] | 3.3 |
| N#CN1CCC[C@@H](n2nc(-c3ccc(Cc4ccccc4F)cc3)c(C(N)=O)c2N)C1 (single isomer, unassigned) [Example 75] | 0.81 |
| Cc1ccc(Oc2ccc(-c3nn(C4CCCN(C#N)C4)c(N)c3C(N)=O)cc2)cc1 (centres unmarked) [Example 42, 5-amino-1-(1-cyanopiperidin-3-yl)-3-[4-(4-methylphenoxy)phenyl]-1H-pyrazole-4-carboxamide] | 1.2 |

| SMILES | IC50 [nM] |
| --- | --- |
| N#CN1CCCC(n2nc(-c3ccc(Cc4ccc(F)c(F)c4)cc3)c(C(N)=O)c2N)C1 (single isomer, unassigned) [Example 84] | 5.6 |
| N#CN1CCC(n2nc(-c3ccc(Oc4ccccc4)cc3)c(C(N)=O)c2N)CC1 [Example 5, 5-amino-1-(1-cyanopiperidin-4-yl)-3-(4-phenoxyphenyl)-1H-pyrazole-4-carboxamide] | 32.1 |
| Cc1c(F)cccc1Oc1ccc(-c2nn(C3CCCN(C#N)C3)c(N)c2C(N)=O)cc1 (centres unmarked) [Example 54, 5-amino-1-(1-cyanopiperidin-3-yl)-3-[4-(3-fluoro-2-methylphenoxy)phenyl]-1H-pyrazole-4-carboxamide] | 1.2 |
| N#CN1CCCC(n2nc(-c3ccc(Oc4ncc(F)cc4F)cc3)c(C(N)=O)c2N)C1 (centres unmarked) [Example 115, 5-amino-1-(1-cyanopiperidin-3-yl)-3-{4-[(3,5-difluoropyridin-2-yl)oxy]phenyl}-1H-pyrazole-4-carboxamide] | 3.7 |
| N#CN1CCCC(n2nc(-c3ccc(Oc4cc(F)c(F)cc4F)cc3)c(C(N)=O)c2N)C1 (centres unmarked) [Example 59, 5-amino-1-(1-cyanopiperidin-3-yl)-3-[4-(2,4,5-trifluorophenoxy)phenyl]-1H-pyrazole-4-carboxamide] | 8.5 |
| N#CN1CCCC(n2nc(-c3cccc(Oc4ccccc4)c3)c(C(N)=O)c2N)C1 (single isomer, unassigned) [Example 91] | 154 |
| N#CN1CCCC(n2nc(-c3ccc(C(=O)c4ccccc4)cc3)c(C(N)=O)c2N)C1 (centres unmarked) [Example 87, 5-Amino-3-(4-benzoyl-phenyl)-1-(1-cyano)-piperidin-3-yl-1H-pyrazole-4-carboxylic acid amide] | 1.3 |
| N#CN1CCCC(n2nc(-c3cccc(Oc4ccccc4)c3)c(C(N)=O)c2N)C1 (single isomer, unassigned) [Example 90] | 3.2 |
| N#CN1CCCC(n2nc(-c3cccc(Oc4ccc(F)c(F)c4)c3)c(C(N)=O)c2N)C1 (centres unmarked) [Example 105, 5-amino-1-(1-cyanopiperidin-3-yl)-3-[3-(3,4-difluorophenoxy)phenyl]-1H-pyrazole-4-carboxamide] | 55.5 |
| NC(=O)c1c(-c2ccc(Oc3ccc(Cl)cc3)cc2)nn([C@@H]2CCCN(C(=O)/C=C/C(F)F)C2)c1N [Example 133, 5-amino-3-[4-(4-chlorophenoxy)phenyl]-1-{(3R)-1-[(2E)-4,4-difluorobut-2-enoyl]piperidin-3-yl}-1H-pyrazole-4-carboxamide] | 0.38 |
| COc1cc(F)ccc1Oc1ccc(-c2nn(C3CCCN(C#N)C3)c(N)c2C(N)=O)cc1 (centres unmarked) [Example 47, 5-amino-1-(1-cyanopiperidin-3-yl)-3-{4-[4-fluoro-2-methoxyphenoxy]phenyl}-1H-pyrazole-4-carboxamide] | 1.6 |
| N#CN1CCCC(n2nc(-c3ccc(Oc4ccccc4)nc3)c(C(N)=O)c2N)C1 (centres unmarked) [Example 107, 5-amino-1-(1-cyanopiperidin-3-yl)-3-(6-phenoxypyridin-3-yl)-1H-pyrazole-4-carboxamide] | 171 |
| N#CN1CCCC(n2nc(-c3cccc(Cc4ccc(F)cc4)c3)c(C(N)=O)c2N)C1 (centres unmarked) [Example 93, 5-amino-1-(1-cyanopiperidin-3-yl)-3-[3-(4-fluorobenzyl)phenyl]-1H-pyrazole-4-carboxamide] | 35 |
| N#C/C=C/C(=O)N1CCC[C@@H](n2nc(-c3ccc(Oc4ccc(Cl)cc4)cc3)c(C(N)=O)c2N)C1 [Example 135, 5-amino-3-[4-(4-chlorophenoxy)phenyl]-1-{(3R)-1-[(2E)-3-cyanoprop-2-enoyl]piperidin-3-yl}-1H-pyrazole-4-carboxamide] | 1.2 |
| N#CCN1CC2CC1CC2n1nc(-c2ccc(Oc3ccccc3)cc2)c(C(N)=O)c1N (centres unmarked) [Example 12, 5-amino-1-[2-(cyanomethyl)-2-azabicyclo[2.2.1]hept-5-yl]-3-(4-phenoxyphenyl)-1H-pyrazole-4-carboxamide] | 54.2 |
| NC(=O)c1c(-c2ccc(Oc3ncc(Cl)cc3F)cc2)nn([C@@H]2CCCN(C(=O)/C=C/CO)C2)c1N [Example 154, 5-amino-3-{4-[(5-chloro-3-fluoropyridin-2-yl)oxy]phenyl}-1-{(3R)-1-[(2E)-4-hydroxybut-2-enoyl]piperidin-3-yl}-1H-pyrazole-4-carboxamide] | 49 |
| Cc1ccc(Oc2ccc(-c3nn(C4CCCN(C#N)C4)c(N)c3C(N)=O)cc2)c(Cl)c1 (centres unmarked) [Example 38, 5-amino-3-[4-(2-chloro-4-methylphenoxy)phenyl]-1-(1-cyanopiperidin-3-yl)-1H-pyrazole-4-carboxamide] | 2.5 |
| N#CN1CCCC(n2nc(-c3ccc(Oc4ccc(Cl)cn4)cc3)c(C(N)=O)c2N)C1 (centres unmarked) [Example 108, 5-amino-3-(4-((5-chloropyridin-2-yl)oxy)phenyl)-1-(1-cyanopiperidin-3-yl)-1H-pyrazole-4-carboxamide] | 7.8 |
| N#CN1CC(n2nc(-c3ccc(Oc4ccccc4)cc3)c(C(N)=O)c2N)C1 [Example 9, 5-amino-1-(1-cyanoazetidin-3-yl)-3-(4-phenoxyphenyl)-1H-pyrazole-4-carboxamide] | 23.3 |

Source: US10266513B2 (Pfizer Inc., priority 2012, dated 2019)
